According to paper PMC12040169 (PLOS Biology, 2025):

Experiment: in vitro
Details: human, hela cells, % viability

Row | SMILES | viability at 28.5 h, 10 µM
1 | COC(=O)c1ccc(N2CCN(C)CC2)c(NC(=O)c2cc(Br)ccc2OC)c1 [CBK269221] | 92%
2 | Nc1nonc1-n1nnc(C(=O)N/N=C2\CCc3ccccc32)c1-c1ccccc1 [CBK261988] | 95.1%
3 | COc1ncc(-c2cncc(Nc3ccccc3)n2)c(OC)n1 [CBK065282] | 100%
4 | O=c1ccccn1COCc1ccccc1 [CBK006438] | 103%
5 | N=c1n(CCN2CCCCC2)c2ccccc2n1CC(O)COc1ccc(Cl)cc1 (centres unmarked) [CBK262512C] | 89.7%
6 | Cc1ccc(-n2ncc3c(=O)n(CC(=O)Nc4cccc(C)c4)cnc32)cc1 [CBK287533] | 103%
7 | COc1cc(C2NC(=O)N(CCc3ccccc3)C(c3ccccc3)=C2C(C)=O)ccc1O (centres unmarked) [CBK269024] | 108%
8 | S=C(NCc1ccco1)Nc1nn(Cc2ccc(Cl)cc2Cl)cc1Cl [CBK267021] | 80.7%
9 | CCC1CCCCN1CC(=O)N1CCCC1c1nc2ccccc2[nH]1 (centres unmarked) [CBK282695] | 93.5%
10 | O=C1NC(=O)C(CCCCN2CCCC3(CCN(C(=O)c4cc(F)c(F)cc4F)C3)C2)N1 (centres unmarked) [CBK132020] | 97.5%
11 | O=[N+]([O-])c1ccc(N2CCN(S(=O)(=O)c3ccc4ccccc4c3)CC2)c(C(F)(F)F)c1 [CBK264827] | 103%
12 | CN(c1ccc(C(=O)Nc2ccc(S(=O)(=O)N3CCOCC3)cc2)cc1)S(=O)(=O)c1ccccc1 [CBK264129] | 96.7%
13 | COCCn1c(CO)nnc1[C@H]1C[C@@H](NC(=O)c2ccc(C)s2)C1 [CBK307063] | 73.9%
14 | Nc1c(Cc2c(Cl)cccc2Cl)c(=O)n2n1CCCC2 [CBK089337] | 95%
15 | CN1CCN(CCCN2C(=O)CSC2c2cccc([N+](=O)[O-])c2)CC1 (centres unmarked) [CBK278237C] | 99.9%
16 | Nc1nc(OCc2ccccc2)cnc1-c1cccc(C(F)(F)F)c1 [CBK145179] | 99.4%
17 | COc1nccnc1N1CCN(CCOc2ccccc2)CC1 [CBK084230] | 94.1%
18 | CC(=O)Nc1ccc(C#CC2(NC(=O)C3CC3)CCCCC2)cn1 [CBK284676] | 87.4%
19 | CN(C)CC(C)(C)CNC(=O)c1cc(-c2ccc(C(=O)N3CCOCC3)cc2)cnc1N [CBK158574] | 80.2%
20 | CCCc1ccc(N(C)C(=O)c2ccc(OC(F)(F)F)cc2)cc1 [CBK161616] | 91.4%
21 | COc1ccc(NC(=O)C2CCCCC2C(=O)O)c(C)c1 (centres unmarked) [CBK270301] | 83.9%

Row | SMILES | viability at 28.5 h, 10 µM
22 | COc1ncccc1CNC(=O)Nc1cccn(CC(F)(F)F)c1=O [CBK305216] | 113%
23 | O=C1NC(=S)N/C1=C/c1cc2c(cc1Cl)OCO2 [CBK261818] | 91.5%
24 | O=C(NC1CCCCC1)N[C@H]1[C@H](O)[C@@H](N2CCN(c3ccccc3)CC2)[C@@H]2OC[C@H]1O2 [CBK288822] | 95%
25 | Cc1c(Cl)cccc1S(=O)(=O)Nc1nc(CCN2CCOCC2=O)cs1 [CBK003498K] | 87.7%
26 | O=C(CSc1nnnn1-c1cccnc1)NC1CCCCCC1 [CBK270092] | 83.9%
27 | Cn1c(Cc2ccccc2)nnc1Sc1ccc(C(=O)O)cc1[N+](=O)[O-] [CBK265038] | 99.6%
28 | COc1ccc(C(=O)NNS(=O)(=O)N(C)C)cc1OC [CBK267697] | 99.1%
29 | CS(=O)(=O)c1ccc(CN2C[C@@H]3OCC(=O)N(Cc4ccc(F)cc4)[C@@H]3C2)cc1 [CBK289690] | 119%
30 | C=CCn1cc(CN2CCCC(O)(c3ccc(F)cc3)CC2)c(C)n1 (centres unmarked) [CBK285144] | 92%
31 | O=C(Nc1ccc(OCc2ccccc2)cc1)OCC1CN(Cc2ccccc2)CCO1 (centres unmarked) [CBK074792] | 102%
32 | CC(C)(C)NS(=O)(=O)c1ccccc1[N+](=O)[O-] [CBK260932] | 97.8%
33 | CN(C)CCNc1nc(-c2cncnc2)cnc1N [CBK063661] | 97.8%
34 | O=C(c1ccccc1F)N1CCCC1Cn1c(=O)oc2ccccc21 (centres unmarked) [CBK282926] | 97.5%
35 | COC(=O)[C@H]1CN(C(=O)c2cscn2)C[C@@H]1c1ccc(F)cc1 [CBK283785] | 92.3%
36 | O=C(O)COc1ccccc1/C=N/n1c(S)nnc1-c1cccnc1 [CBK265337] | 89.9%
37 | CN(C)CCN(Cc1ccccc1)C(=O)NCc1c(Cl)cccc1Cl [CBK155107] | 97.3%
38 | Cc1[nH]c2ccccc2c1C(=O)C(=O)Nc1ccc(C#N)cc1 [CBK269896] | 84.6%
39 | CC(=O)Nc1cccc(NC(=O)N2CCN(C3CCN(C)CC3)CC2)c1 [CBK155901] | 85.1%
40 | O=C1NC/C=C/CC2(CCN(Cc3ccccc3)CC2)C(=O)NCCOc2ccccc21 [CBK292097] | 103%
41 | Oc1ccc2cc(-c3ccc(OC(F)(F)F)cc3)cnc2n1 [CBK081300] | 32.8%
42 | CN1CCC(N(C)C(=O)NCc2cccnc2)C1 (centres unmarked) [CBK156001] | 93.5%

Row | SMILES | viability at 28.5 h, 10 µM
43 | O=C(O)COc1cccc(NS(=O)(=O)c2ccc(Br)cc2)c1 [CBK286911] | 111%
44 | Cc1ccc(NS(=O)(=O)c2cc(C(=O)Nc3cccc(N(C)S(C)(=O)=O)c3)ccc2C)c(C)c1 [CBK268220] | 92.7%
45 | COc1ccc2nc(NC(=O)c3cnc(-c4ccc(Cl)cc4)c(-c4cccnc4)c3)sc2c1 [CBK037576] | 105%
46 | Cc1ccc(NC(=O)CCc2c(C)nc(N3CCOCC3)[nH]c2=O)cc1 [CBK304985] | 98.2%
47 | Cn1c(=O)n(CC(=O)NCCc2ccccc2)c2cccnc21 [CBK283910] | 82.8%
48 | O=C(COc1ccc(S(=O)(=O)NC2CCCC2)cc1)Nc1ccc2c(c1)OCCO2 [CBK266431] | 101%
49 | CC1CC(C)CN(C2CCN(Cc3ccccn3)CC2)C1 (centres unmarked) [CBK264639G] | 99.4%
50 | Cc1ccc(Cl)cc1N1CCN(C(=O)C2C3C=CC(C3)C2C(=O)O)CC1 (centres unmarked) [CBK287025] | 117%
51 | COc1ccc(NC(=O)Nc2cc3cccnc3c(Br)n2)c(C)c1 [CBK063294] | 96.8%
52 | Cc1ccccc1OCc1nnc(SCc2nnc(-c3ccccc3)o2)n1C [CBK267406] | 90.1%
53 | CC(=O)Nc1nnc(-c2ccc3c(c2)CCCC3)o1 [CBK287426] | 88%
54 | Cc1nc(C)n(CCNC(=O)Cc2coc3cc(C)c(C)cc23)n1 [CBK282613] | 90.7%
55 | CCNC(=O)NC[C@H]1C[C@@H]2CCN1C[C@@H]2c1cc(C2CCCC2)nc(C)n1 [CBK289122] | 81.6%
56 | O=C(Cc1ccc(F)cc1)N1CCOC(Cn2ccnc2)C1 (centres unmarked) [CBK282875] | 91%
57 | Cc1cc(C)nc(Nc2ncc(O)n2-c2ccccc2)n1 [CBK287914] | 93.5%
58 | O=[N+]([O-])c1ccc(NCCCNS(=O)(=O)c2ccc3ccccc3c2)c(Cl)c1 [CBK262006] | 79.3%
59 | Cn1ncc(N2CCN(C(=O)CCN3CCCCCC3=O)CC2)cc1=O [CBK306508] | 109%
60 | O=C1N/C(=N/N=C/c2ccc(O)cc2)SC1Cc1ccccc1[N+](=O)[O-] (centres unmarked) [CBK261684] | 91.9%
61 | O=C(CCn1cnc2ccccc2c1=O)Nc1cccc(C(F)(F)F)c1 [CBK267687] | 91.5%

Same assay, conditions: human, hela cells, % viability, bulk resorufin, single well

Row | SMILES | viability at 28.5 h, 10 µM
62 | O=C(COc1ccc(C=C2C(=O)NC(=O)NC2=O)cc1)NCc1ccccc1 [CBK263736] | 93.3%
